Laboratory results: US6552196B2, “Quinolone carboxylic acid derivatives” (Dong Wha Pharmaceutical Industrial Co., Ltd., priority 1997, dated 2003)

What was measured:
Assay type in all cases: cell-based
[1] = tested on: Pseudomonas aeruginosa 1771M; test: In vitro antibacterial activity (MIC), agar dilution; settings: for MIC: Pseudomonas aeruginosa, 1771M, 18 h, read-out: minimum inhibitory concentration (MIC)
Experimental: (§1) 10^7 cfu/ml of bacteria were inoculated and cultured for 18 hours at 37° C. and then the antibacterial activities were measured. For the methicillin resistant strains the activities were measured after 48 hours of cultivation at 30° C. Hoechst Standard strains were used for the testings.

[2] = tested on: Staphylococcus aureus SG511; test: as above; settings: 2-fold agar dilution, Muller-Hinton agar, 18 hours at 37° C.; for MIC: read-out: minimum inhibitory concentration (MIC)
Experimental: as §1

[3] = tested on: Streptococcus faecium MD 8b; test: as above; settings: 2-fold agar dilution, Muller-Hinton agar, 18 hours at 37° C.; for MIC: Enterococcus faecium, MD8B, read-out: minimum inhibitory concentration (MIC)
Experimental: as §1

Esherichia coli DC2 = test: as above; settings: 2-fold agar dilution, Muller-Hinton agar, 18 hours at 37° C.; for MIC: read-out: minimum inhibitory concentration (MIC)
Experimental: as §1

Esherichia coli 1507E = test: as above; settings: 2-fold agar dilution, Muller-Hinton agar, 18 hours at 37° C.; for MIC: read-out: minimum inhibitory concentration (MIC)
Experimental: as §1

Esherichia coli DC0 = test: as above; settings: 2-fold agar dilution, Muller-Hinton agar, 18 hours at 37° C.; for MIC: read-out: minimum inhibitory concentration (MIC)
Experimental: as §1

[4] = tested on: Streptococcus pyogens 308A; test: as above; settings: 2-fold agar dilution, Muller-Hinton agar, 18 hours at 37° C.; for MIC: read-out: minimum inhibitory concentration (MIC)
Experimental: as §1

[5] = tested on: Pseudomonas aeruginosa 1771; test: as above; settings: 2-fold agar dilution, Muller-Hinton agar, 18 hours at 37° C.; for MIC: read-out: minimum inhibitory concentration (MIC)
Experimental: as §1

[6] = tested on: Streptococcus pyogens 77A; test: as above; settings: 2-fold agar dilution, Muller-Hinton agar, 18 hours at 37° C.; for MIC: read-out: minimum inhibitory concentration (MIC)
Experimental: as §1

[7] = tested on: Pseudomonas aeruginosa 1592E; test: as above; settings: 2-fold agar dilution, Muller-Hinton agar, 18 hours at 37° C.; for MIC: read-out: minimum inhibitory concentration (MIC)
Experimental: as §1

[8] = tested on: Pseudomonas aeruginosa 9027; test: as above; settings: 2-fold agar dilution, Muller-Hinton agar, 18 hours at 37° C.; for MIC: read-out: minimum inhibitory concentration (MIC)
Experimental: as §1

Salmonella typhimurium = test: as above; settings: 2-fold agar dilution, Muller-Hinton agar, 18 hours at 37° C.; for MIC: Salmonella enterica, read-out: minimum inhibitory concentration (MIC)
Experimental: as §1

Klebsiella oxytoca 1082E = test: as above; settings: 2-fold agar dilution, Muller-Hinton agar, 18 hours at 37° C.; for MIC: read-out: minimum inhibitory concentration (MIC)
Experimental: as §1

[9] = tested on: Staphylococcus aureus 503; test: as above; settings: 2-fold agar dilution, Muller-Hinton agar, 18 hours at 37° C.; for MIC: read-out: minimum inhibitory concentration (MIC)
Experimental: as §1

[10] = tested on: Staphylococcus aureus 285; test: as above; settings: 2-fold agar dilution, Muller-Hinton agar, 18 hours at 37° C.; for MIC: read-out: minimum inhibitory concentration (MIC)
Experimental: as §1

[11] = tested on: Klebsiella aerogenes 1522E; test: as above; settings: 2-fold agar dilution, Muller-Hinton agar, 18 hours at 37° C.; for MIC: read-out: minimum inhibitory concentration (MIC)
Experimental: as §1

Esherichia coli TEM = test: as above; settings: 2-fold agar dilution, Muller-Hinton agar, 18 hours at 37° C.; for MIC: read-out: minimum inhibitory concentration (MIC)
Experimental: as §1

Esherichia coli 078 = test: as above; settings: 2-fold agar dilution, Muller-Hinton agar, 18 hours at 37° C.; for MIC: read-out: minimum inhibitory concentration (MIC)
Experimental: as §1

[12] = tested on: Staphylococcus aureus 690E; test: In vitro antibacterial activity against resistant strains (MIC); settings: resistant strain Staphylococcus aureus 690E, 2-fold agar dilution, methicillin resistant strains 48 hours at 30° C.
Experimental: as §1

[13] = tested on: Staphylococcus epidermidis 291; test: as above; settings: resistant strain Staphylococcus epidermidis 291, 2-fold agar dilution, methicillin resistant strains 48 hours at 30° C.
Experimental: as §1

[14] = tested on: Staphylococcus aureus 208E; test: as above; settings: resistant strain Staphylococcus aureus 208E, 2-fold agar dilution, methicillin resistant strains 48 hours at 30° C.
Experimental: as §1

[15] = tested on: Staphylococcus aureus 8236; test: as above; settings: resistant strain Staphylococcus aureus 8236, 2-fold agar dilution, methicillin resistant strains 48 hours at 30° C.
Experimental: as §1

[16] = tested on: Staphylococcus aureus 697E; test: as above; settings: resistant strain Staphylococcus aureus 697E, 2-fold agar dilution, methicillin resistant strains 48 hours at 30° C.
Experimental: as §1

[17] = tested on: Staphylococcus aureus 694E; test: as above; settings: resistant strain Staphylococcus aureus 694E, 2-fold agar dilution, methicillin resistant strains 48 hours at 30° C.
Experimental: as §1

[18] = tested on: Staphylococcus aureus 88E; test: as above; settings: resistant strain Staphylococcus aureus 88E, 2-fold agar dilution, methicillin resistant strains 48 hours at 30° C.
Experimental: as §1

[19] = tested on: Staphylococcus aureus 693E; test: as above; settings: resistant strain Staphylococcus aureus 693E, 2-fold agar dilution, methicillin resistant strains 48 hours at 30° C.
Experimental: as §1

[20] = tested on: Staphylococcus aureus 701E; test: as above; settings: resistant strain Staphylococcus aureus 701E, 2-fold agar dilution, methicillin resistant strains 48 hours at 30° C.
Experimental: as §1

[21] = tested on: Staphylococcus aureus 695E; test: as above; settings: resistant strain Staphylococcus aureus 695E, 2-fold agar dilution, methicillin resistant strains 48 hours at 30° C.
Experimental: as §1

[22] = tested on: Staphylococcus aureus 179; test: as above; settings: resistant strain Staphylococcus aureus 179, 2-fold agar dilution, methicillin resistant strains 48 hours at 30° C.
Experimental: as §1

[23] = tested on: Staphylococcus aureus 256E; test: as above; settings: resistant strain Staphylococcus aureus 256E, 2-fold agar dilution, methicillin resistant strains 48 hours at 30° C.
Experimental: as §1

[24] = tested on: Staphylococcus aureus 692E; test: as above; settings: resistant strain Staphylococcus aureus 692E, 2-fold agar dilution, methicillin resistant strains 48 hours at 30° C.
Experimental: as §1

[25] = tested on: Staphylococcus epidermidis 178; test: as above; settings: resistant strain Staphylococcus epidermidis 178, 2-fold agar dilution, methicillin resistant strains 48 hours at 30° C.
Experimental: as §1

[26] = tested on: Staphylococcus aureus 241; test: as above; settings: resistant strain Staphylococcus aureus 241, 2-fold agar dilution, methicillin resistant strains 48 hours at 30° C.
Experimental: as §1

[27] = tested on: Staphylococcus aureus 303; test: as above; settings: resistant strain Staphylococcus aureus 303, 2-fold agar dilution, methicillin resistant strains 48 hours at 30° C.
Experimental: as §1

[28] = tested on: Staphylococcus aureus 121E; test: as above; settings: resistant strain Staphylococcus aureus 121E, 2-fold agar dilution, methicillin resistant strains 48 hours at 30° C.
Experimental: as §1

[29] = tested on: Staphylococcus aureus 293; test: as above; settings: resistant strain Staphylococcus aureus 293, 2-fold agar dilution, methicillin resistant strains 48 hours at 30° C.
Experimental: as §1

[30] = tested on: Staphylococcus aureus 703E; test: as above; settings: resistant strain Staphylococcus aureus 703E, 2-fold agar dilution, methicillin resistant strains 48 hours at 30° C.
Experimental: as §1

Enterobacter clocae P99 = test: In vitro antibacterial activity (MIC), agar dilution; settings: 2-fold agar dilution, Muller-Hinton agar, 18 hours at 37° C.
Experimental: as §1

[31] = tested on: Enterobacter clocae 1321E; test: as above; settings: 2-fold agar dilution, Muller-Hinton agar, 18 hours at 37° C.
Experimental: as §1

[32] = read-out: minimum inhibitory concentration (MIC)

O=C(O)c1cn(C2CC2)c2cc(N3CCNCC3)c(F)cc2c1=O [Ciprofloxacin, ciprofloxacin, reference compound]
12.5 µg/mL: MIC [15, 32] | MIC [22, 32] | MIC [26, 32] | MIC [27, 32] | MIC [29, 32]
0.004 µg/mL: MIC (Esherichia coli 078)
3.12 µg/mL: MIC [4]
50 µg/mL: MIC [13, 32] | MIC [25, 32]
< 0.002 µg/mL: MIC (Klebsiella oxytoca 1082E)
0.781 µg/mL: MIC [6] | MIC [10] | MIC [14, 32] | MIC [18, 32] | MIC [23, 32] | MIC [28, 32]
0.195 µg/mL: MIC [2] | MIC (Esherichia coli DC0) | MIC [5] | MIC [7] | MIC [8]
0.049 µg/mL: MIC [1] | MIC (Esherichia coli DC2)
0.013 µg/mL: MIC [11]
0.007 µg/mL: MIC (Esherichia coli 1507E) | MIC (Salmonella typhimurium) | MIC (Esherichia coli TEM)
0.391 µg/mL: MIC [3] | MIC [9] | MIC [12, 32] | MIC [16, 32] | MIC [17, 32] | MIC [19, 32] | MIC [20, 32] | MIC [21, 32] | MIC [24, 32] | MIC [30, 32]

CON=C1CN(c2c(F)c(N)c3c(=O)c(C(=O)O)cn(C4CC4)c3c2F)CC12CNC2.CS(=O)(=O)O [Example 5, 1-Cyclopropyl-5-amino-6,8-difluoro-7-[8-(methoxyimino)-2,6-diazaspiro[3,41]oct-6-yl]-4-oxo-1,4-dihydro-3-quinolinecarboxylic acid methanesulfonate]
0.391 µg/mL: minimum inhibitory concentration (MIC) [5] | minimum inhibitory concentration (MIC) [7] | minimum inhibitory concentration (MIC) [13] | minimum inhibitory concentration (MIC) [25]
0.781 µg/mL: minimum inhibitory concentration (MIC) [8]
<0.002 µg/mL: minimum inhibitory concentration (MIC) [2] | minimum inhibitory concentration (MIC) [6] | minimum inhibitory concentration (MIC) (Salmonella typhimurium) | minimum inhibitory concentration (MIC) (Klebsiella oxytoca 1082E) | minimum inhibitory concentration (MIC) [9] | minimum inhibitory concentration (MIC) (Esherichia coli 078) | minimum inhibitory concentration (MIC) [16]
0.007 µg/mL: minimum inhibitory concentration (MIC) (Enterobacter clocae P99) | minimum inhibitory concentration (MIC) (Esherichia coli 1507E) | minimum inhibitory concentration (MIC) [10] | minimum inhibitory concentration (MIC) [12] | minimum inhibitory concentration (MIC) [14] | minimum inhibitory concentration (MIC) [17] | minimum inhibitory concentration (MIC) [18] | minimum inhibitory concentration (MIC) [19] | minimum inhibitory concentration (MIC) [20] | minimum inhibitory concentration (MIC) [21] | minimum inhibitory concentration (MIC) [23] | minimum inhibitory concentration (MIC) [30]
0.025 µg/mL: minimum inhibitory concentration (MIC) [3] | minimum inhibitory concentration (MIC) [4] | minimum inhibitory concentration (MIC) [11]
0.098 µg/mL: minimum inhibitory concentration (MIC) (Esherichia coli DC0) | minimum inhibitory concentration (MIC) [15] | minimum inhibitory concentration (MIC) [22] | minimum inhibitory concentration (MIC) [26] | minimum inhibitory concentration (MIC) [27] | minimum inhibitory concentration (MIC) [29]
0.195 µg/mL: minimum inhibitory concentration (MIC) ([1]; Pseudomonas aeruginosa 1771M, 2-fold agar dilution, Muller-Hinton agar, 18 hours at 37° C.)
0.013 µg/mL: minimum inhibitory concentration (MIC) (Esherichia coli DC2) | minimum inhibitory concentration (MIC) (Esherichia coli TEM) | minimum inhibitory concentration (MIC) [28]
0.004 µg/mL: minimum inhibitory concentration (MIC) [31] | minimum inhibitory concentration (MIC) [24]

CON=C1CN(c2cc3c(cc2F)c(=O)c(C(=O)O)cn3-c2ccc(F)cc2F)CC12CNC2.CS(=O)(=O)O.CS(=O)(=O)O [Example 6, 1-(2,4-Difluorophenyl)-6-fluoro-7-[8-(methoxyimino)-2,6-diazaspiro[3,4]oct-6-yl]-4-oxo-1,4-dihydro-3-quinolinecarboxylic acid dimethanesulfonate]
0.391 µg/mL: MIC [11]
0.195 µg/mL: MIC [3] | MIC (Esherichia coli 1507E) | MIC [4] | MIC (Esherichia coli TEM)
3.12 µg/mL: MIC [8]
0.781 µg/mL: MIC (Esherichia coli DC0)
0.049 µg/mL: MIC [2] | MIC (Salmonella typhimurium) | MIC [9] | MIC (Esherichia coli 078)
1.56 µg/mL: MIC [1] | MIC [5] | MIC [7]
0.013 µg/mL: MIC [6] | MIC (Klebsiella oxytoca 1082E)
0.098 µg/mL: MIC (Enterobacter clocae P99; [32]) | MIC (Esherichia coli DC2) | MIC [31, 32] | MIC [10]
